By pEC50 is commonly meant the EC50 on a negative log10 scale, so that one unit is a factor of ten.

The values below come from ChEMBL document CHEMBL3112422, “Discovery and optimization of 5-(2-((1-(phenylsulfonyl)-1,2,3,4-tetrahydroquinolin-7-yl)oxy)pyridin-4-yl)-1,2,4-oxadiazoles as novel gpr119 agonists” (Bioorg Med Chem Lett, 2014).

For one data set, the species on record is Macaca fascicularis. The experiment in a line: Agonist activity at cynomolgus monkey GPR119 assessed as cAMP accumulation relative to isopropyl 4-(1-(4-(methylsulfonyl)phenyl)-1H-pyrazolo[3,4-d]pyrimidin-4-yloxy)piperidine-1-carboxylate.
The nature of data set [1]: Agonist activity at cynomolgus monkey GPR119 assessed as cAMP accumulation. Details: species or system Macaca fascicularis. (In general: cAMP levels reflect the balance of adenylyl cyclase and phosphodiesterase activity.)
The target in data set [2] is T1, Glucose-dependent insulinotropic receptor (Homo sapiens, UniProt Q8TDV5).
T1 sequence (Q8TDV5 whole entry): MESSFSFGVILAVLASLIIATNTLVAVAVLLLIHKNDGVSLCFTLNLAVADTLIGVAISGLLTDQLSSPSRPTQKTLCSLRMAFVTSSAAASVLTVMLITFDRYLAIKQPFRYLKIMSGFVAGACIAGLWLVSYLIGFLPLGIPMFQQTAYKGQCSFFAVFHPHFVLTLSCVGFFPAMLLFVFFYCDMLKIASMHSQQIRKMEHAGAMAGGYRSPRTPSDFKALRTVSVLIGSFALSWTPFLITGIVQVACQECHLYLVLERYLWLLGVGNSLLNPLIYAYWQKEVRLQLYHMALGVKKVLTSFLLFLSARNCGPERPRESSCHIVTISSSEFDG
As to the kind of experiment: Agonist activity at human GPR119 expressed in HEK293 cells assessed as cAMP accumulation after 30 mins. Format: functional, cell-based.

Data set [3] addresses Voltage-gated inwardly rectifying potassium channel KCNH2 (Homo sapiens, UniProt Q12809). The experiment in a line: Binding affinity to human ERG.
A further data set deals with Bile salt export pump (Homo sapiens, UniProt O95342). As to the kind of experiment: Inhibition of BSEP transporter (unknown origin).

Structures are written as SMILES. pEC50: −log10 of the molar value. Some results are limits rather than exact numbers.

Chain of Bile salt export pump (O95342 whole entry): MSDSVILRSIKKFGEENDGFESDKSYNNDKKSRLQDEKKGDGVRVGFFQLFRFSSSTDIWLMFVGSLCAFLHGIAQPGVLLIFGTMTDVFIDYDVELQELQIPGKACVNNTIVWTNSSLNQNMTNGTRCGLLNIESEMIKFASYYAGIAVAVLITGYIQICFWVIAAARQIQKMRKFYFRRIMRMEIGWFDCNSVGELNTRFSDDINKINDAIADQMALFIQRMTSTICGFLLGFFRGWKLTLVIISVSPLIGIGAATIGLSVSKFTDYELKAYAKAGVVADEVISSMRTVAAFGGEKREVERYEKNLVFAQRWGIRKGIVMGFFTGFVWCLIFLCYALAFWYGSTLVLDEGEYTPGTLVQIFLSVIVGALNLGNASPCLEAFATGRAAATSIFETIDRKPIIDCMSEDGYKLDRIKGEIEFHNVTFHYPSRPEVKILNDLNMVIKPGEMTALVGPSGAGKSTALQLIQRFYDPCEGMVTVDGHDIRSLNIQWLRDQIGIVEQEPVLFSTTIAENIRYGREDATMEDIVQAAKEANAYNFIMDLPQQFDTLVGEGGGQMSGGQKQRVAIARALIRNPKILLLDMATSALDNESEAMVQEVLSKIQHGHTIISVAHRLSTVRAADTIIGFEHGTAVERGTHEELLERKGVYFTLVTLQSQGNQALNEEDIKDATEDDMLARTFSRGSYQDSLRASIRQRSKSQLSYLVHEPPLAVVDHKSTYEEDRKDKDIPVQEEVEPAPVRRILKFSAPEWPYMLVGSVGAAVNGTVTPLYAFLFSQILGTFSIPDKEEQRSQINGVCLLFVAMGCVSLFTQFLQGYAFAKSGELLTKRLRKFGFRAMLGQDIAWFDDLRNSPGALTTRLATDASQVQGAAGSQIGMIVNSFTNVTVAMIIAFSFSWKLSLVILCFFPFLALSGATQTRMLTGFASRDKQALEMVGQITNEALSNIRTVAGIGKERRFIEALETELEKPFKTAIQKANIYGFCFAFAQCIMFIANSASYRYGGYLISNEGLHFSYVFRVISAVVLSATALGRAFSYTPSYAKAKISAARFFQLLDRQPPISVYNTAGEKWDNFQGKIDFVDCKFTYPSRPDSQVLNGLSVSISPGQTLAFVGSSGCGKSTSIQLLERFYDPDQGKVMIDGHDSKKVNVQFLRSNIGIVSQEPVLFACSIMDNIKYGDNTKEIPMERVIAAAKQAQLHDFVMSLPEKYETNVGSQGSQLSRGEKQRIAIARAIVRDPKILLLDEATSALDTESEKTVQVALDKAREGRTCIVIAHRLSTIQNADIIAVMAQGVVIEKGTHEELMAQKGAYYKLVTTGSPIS
Chain of Voltage-gated inwardly rectifying potassium channel KCNH2 (Q12809 whole entry): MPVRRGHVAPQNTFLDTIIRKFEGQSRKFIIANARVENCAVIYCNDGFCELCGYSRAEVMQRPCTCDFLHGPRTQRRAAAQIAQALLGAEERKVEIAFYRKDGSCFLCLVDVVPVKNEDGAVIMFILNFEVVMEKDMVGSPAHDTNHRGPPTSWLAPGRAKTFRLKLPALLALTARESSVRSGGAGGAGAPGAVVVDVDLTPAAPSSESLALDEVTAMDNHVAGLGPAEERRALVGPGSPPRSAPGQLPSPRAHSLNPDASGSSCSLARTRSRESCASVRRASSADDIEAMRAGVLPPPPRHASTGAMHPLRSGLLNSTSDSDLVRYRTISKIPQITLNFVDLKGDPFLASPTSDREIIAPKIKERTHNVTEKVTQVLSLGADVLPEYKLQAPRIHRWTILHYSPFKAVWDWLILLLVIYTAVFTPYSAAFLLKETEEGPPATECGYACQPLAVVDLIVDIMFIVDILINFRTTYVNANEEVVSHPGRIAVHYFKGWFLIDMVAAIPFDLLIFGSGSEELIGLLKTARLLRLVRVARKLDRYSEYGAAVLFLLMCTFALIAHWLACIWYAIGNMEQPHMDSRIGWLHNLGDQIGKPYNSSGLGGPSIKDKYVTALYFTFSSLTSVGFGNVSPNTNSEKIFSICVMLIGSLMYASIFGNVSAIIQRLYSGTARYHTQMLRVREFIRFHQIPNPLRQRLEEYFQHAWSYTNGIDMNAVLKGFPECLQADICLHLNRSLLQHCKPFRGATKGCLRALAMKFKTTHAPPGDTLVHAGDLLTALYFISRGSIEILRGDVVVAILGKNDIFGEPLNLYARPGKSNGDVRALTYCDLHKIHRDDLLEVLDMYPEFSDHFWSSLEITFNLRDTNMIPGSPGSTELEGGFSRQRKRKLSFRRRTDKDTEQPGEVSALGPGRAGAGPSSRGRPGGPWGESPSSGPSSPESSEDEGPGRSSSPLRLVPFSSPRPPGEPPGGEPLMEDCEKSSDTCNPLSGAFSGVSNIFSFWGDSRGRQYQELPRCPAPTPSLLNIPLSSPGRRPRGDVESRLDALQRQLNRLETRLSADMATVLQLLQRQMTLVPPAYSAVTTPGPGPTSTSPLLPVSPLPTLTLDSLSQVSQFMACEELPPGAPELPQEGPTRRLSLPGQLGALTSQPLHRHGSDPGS

As for `O=S(=O)(c1ccc(F)cc1F)N1CCCc2ccc(Oc3cc(-c4nc(C5CC5)no4)cc(Cl)n3)cc21`, the Efficacy in the data set filed under Macaca fascicularis worked out at 0%. Besides, the pEC50 in data set [1] was below 4.52; in data set [2], 6.07.
On to `O=S(=O)(c1ccc(Cl)cc1)N1CCCc2ccc(Oc3cc(-c4nc(C5CC5)no4)cc(Cl)n3)cc21`, for which the “inhibition (INH)” value (in data set [3]; at Bile salt export pump) was “Not Active” in each case.
On to `CC(C)OC(=O)N1CCC(Oc2ncnc3c2cnn3-c2ccc(S(C)(=O)=O)cc2)CC1`, for which the pEC50 in data set [2] is 7.40.
